PMC6268373, “Systematic Study of the Physicochemical Properties of a Homologous Series of Aminobisphosphonates” (Molecules, 2012)
In brackets after ≈: the same amount, converted by molar mass.

Experiments:
[1] = Effect of pH on aqueous solubility; conditions: for solubility at 30 min: water, pH adjusted with NaOH or HCl, 21 °C, thermodynamic from solid; for pH of solubility minimum: pH range 0.5 to 11.0
Experimental: (§1) A Jasco V-530 UV/Vis spectrophotometer was used for phosphorus determination at 880 nm wavelength. Filtered liquid samples were diluted to the appropriate volume with Milli-Q water and were digested with the persulphate oxidation technique in acidic medium at elevated temperature to convert aminobisphosponates to orthophosphate. In an acidic medium, ammonium molybdate and antimony potassium tartrate react with orthophosphate to form a phosphomolybdic acid that is reduced to intensively colored molybdenum blue by ascorbic acid [30].
(§2) The mixture containing an excess of the studied compound was first agitated for predetermined time with magnetic stirrer and before taking the sample mixture was allowed to stand for 24 h without stirring. The sample (about 5 mL) was taken from liquid above the solids, pH was measured and the sample was filtered through 0.2 µm membrane filter to remove any possible insoluble particles. The phosphorus concentration in the filtered sample solution was determined by using the spectrophotometric method described above.

[2] = Aqueous solubility of saturated solution at 21 °C (phosphorus determination by molybdenum blue spectrophotometry); conditions: for solubility at 30 min: Milli-Q water, unbuffered, thermodynamic from solid; for solubility at 30 min / pH of saturated solution: 21 °C; for pH of saturated solution: saturated aqueous solution, agitation time 30 min
Experimental: as §1, §2

[3] = Thermal analysis (TG/DTA and TGA 7); type: physicochemical; conditions: for Td: 5 °C/min; for Temp. range of 1st cleavage: lower limit taken at 0.5 wt-%; for Temp. range of dehydration / onset T of dehydration / Td (decomposition onset): heating rate 5 °C/min; for Td (decomposition onset): average from both instruments
Experimental: Thermal decomposition paths with evaluation of crystal water content were obtained parallel with two instruments; Perkin Elmer STA 6000 thermogravimetric TG/DTA and Perkin Elmer TGA 7 analyzers (Perkin Elmer, Massachusetts, USA). Measurements were carried out in an open platinum crucible (the higher 5 mm crucible was used in TG/DTA and a shallower 2 mm crucible in TGA 7) under air atmosphere (flow rate of 45 mL/min) with a heating rate of 5 °C/min over the temperature range of 25−700 °C. The temperature calibration of STA 6000 was made using melting points of indium (156.60 °C) and zinc (419.5 °C) standards. For TGA 7 magnetic Curie-point calibration technique (Alumel, Ni, Perkalloy, Fe) was used. The weight balance of both instruments was calibrated by measuring a standard weight of 50 mg at room temperature. The sample weights used in the measurements were about 4–8 mg, and for each bisphosphonate, it was attempted to keep the same on both instruments. The melting/dehydration/decomposition behavior of the compounds was also visually monitored using a Stuart Scientific SMP3 melting point apparatus.

[4] = Protonation constants by (traditional) potentiometric titration (TPT), SUPERQUAD; conditions: overall protonation, zero level H2L2−, 0.1 M NaNO3, 25 °C
Text: Results were obtained from […] as overall stability constants (log β values); following the chosen zero level H2L^2−. This zero level H2L^2− was chosen in the calculations to avoid any accumulation of errors of protonation constants at different pH ranges. The log β results for reactions (4) and (5) obtained in the final refinements are listed in Table S3 (see Supporting Information) with error limits (±3σ), number of points/number of titrations and χ^2/Σ statistics.
The details of the experiments using (traditional) potentiometric titration are presented in the Supporting Information. The results of the determination by Sirius instrument are shown in the Supporting Information. Potentiometric titrations of the compounds were performed with the PCA200 apparatus (Sirius Analytical Instruments Ltd, Forest Row, East Sussex, UK).
Table S2. The effect of pH on aqueous solubility (mg/L) of aminoalkylbis(phosphonates) […]
Solubility (g/L) of Compound
Determination of the Protonation Constants Using (traditional) Potentiometric Titration. Reagents:
Aqueous 0.1 M NaOH was prepared from Titrisol ampoules (Merck) and 0.1 M HNO3 from Convol ampoules (BDH). The background solution was prepared by dissolving NaNO3 in deionised water.
The NaNO3 and NaCl used in reference electrode were p.a. grade (Merck). The water used in the dilutions and titration solutions was purified with Milli-RO and Milli-Q water purification systems […]
Potentiometric measurements: The protonation equilibria was studied in aqueous 0.1 M NaNO3 at 25.0 ± 0.1 °C through a series of potentiometric EMF titrations carried out with a Schott-Geräte GmbH […]
The cell arrangement for the measurement of the hydrogen ion concentration [H+] was as follows:
−RE […] equilibrium solution […] GE+ (1) where GE denotes a glass electrode (Schott N2680), and RE is Hg, Hg2Cl2 […] 0.01 M NaCl, 0.09 M NaNO3. Expression (2) is valid assuming that the activity coefficients are constant.
The cell parameter E0 and the liquid junction coefficient jH, valid in acidic solutions, were determined for each titration by adding a known amount of HNO3 to the background electrolyte. The value of the liquid junction coefficient jOH, valid in basic solutions, was determined periodically. Only stable EMF readings were used in the calculations.
During the measurements of the protonation equilibria, aqueous 0.1 M NaOH or 0.1 M HNO3 was […]
Four to eight independent titrations were carried out for each ligand. The number of data points used in […]
Data treatment: Protonation and deprotonation of the ligands were controlled by addition of HNO3 or NaOH. The curves of ZH versus pH were drawn to visualize the experimental data sets. ZH describes the average number of H+ ions added or liberated per mole of ligand and is given by the relationship […]
where CH denotes the total concentration of protons calculated over the zero level H2L2−.
In the evaluation of the equilibrium constants, the following two-component equilibria were utilized:
H2L2− ⇋ H2-xL(2+x)– + xH+ , x = 1–2; β–x (4) xH+ + H2L2− ⇋ Hx+2Lx–2, x = 1–3; βx (5)
Mathematical analysis of the systems involves a search for protonation models and equilibrium constants that best describe the experimental data. The calculations were carried out with the computer […]
1200). The sample standard deviation Σ and the χ2 statistics used as criteria in the selection of the models were those provided by the program. As a means to improve the confidence level, the error limits for log β values determined in this study are reported as three times the standard deviation estimated by the program.
Figure S2. ZH vs. pH for protonation of compounds (a) 1; (b) 2; (c) 3; (d) 4 and (e) 5.

solubility at 30 min ([1]; pH 0, aqueous buffer) [mg/mL] | solubility at 30 min ([1]; pH 1, aqueous buffer) [mg/mL] | solubility at 30 min ([1]; pH 2, aqueous buffer) [mg/mL] | solubility at 30 min ([1]; pH 3, aqueous buffer) [mg/mL] | solubility at 30 min ([1]; pH 4, aqueous buffer) [mg/mL] | solubility at 30 min ([1]; pH 5, aqueous buffer) [mg/mL] | solubility at 30 min ([1]; pH 6, aqueous buffer) [mg/mL] | solubility at 30 min ([1]; pH 7, aqueous buffer) [mg/mL] | solubility at 30 min ([1]; pH 8, aqueous buffer) [mg/mL] | solubility at 30 min ([1]; pH 9, aqueous buffer) [mg/mL] | solubility at 30 min ([2]; water) [mg/mL] | pH of saturated solution [2] | Onset temperature of first cleavage ([3]; TG/DTA, higher crucible) [°C] | Td ([3]; TG/DTA, higher crucible, air) [°C] | Temp. range of 1st cleavage ([3]; TG/DTA, higher crucible) | Onset temperature of first cleavage ([3]; TGA 7, shallow crucible) [°C] | Td ([3]; TGA 7, shallow crucible, air) [°C] | Temp. range of 1st cleavage ([3]; TGA 7, shallow crucible) | Td (decomposition onset) ([3]; air) [°C] | temperature of first decomposition step (cleavage of amino group / degradation) ([3]; thermogravimetry, air) | SMILES | other results
2.1 (≈ 6580 µM) | 1.15 (≈ 3600 µM) | 0.86 (≈ 2690 µM) | 1.17 (≈ 3670 µM) | 1.08 (≈ 3380 µM) | 1.11 (≈ 3480 µM) | 1.23 (≈ 3850 µM) | 1.19 (≈ 3730 µM) | 1.23 (≈ 3850 µM) | 1.19 (≈ 3730 µM) | 2.07 (≈ 6470 µM) | 2.51 | 77 | 190 | 33–175 °C | 84 | 191 | 33–173 °C | 191 |  | NCCCCCCCCC(O)(P(=O)(O)O)P(=O)(O)O [Compound 6, (9-Amino-1-hydroxynonylidene)bisphosphonic acid] | solubility at 30 min ([1]; pH 10, aqueous buffer): 1.2 mg/mL (≈ 3760 µM); solubility at 30 min ([1]; pH 11, aqueous buffer): 1.27 mg/mL (≈ 3980 µM); Temp. range of dehydration ([3]; air): 33–175 °C; onset T of dehydration ([3]; air): 81 °C; temperature at which dehydration is initiated ([3]; thermogravimetry, air): ~ 90 °C
0.18 (≈ 518 µM) | 0.08 (≈ 230 µM) | 0.05 (≈ 144 µM) | 0.08 (≈ 230 µM) | 0.18 (≈ 518 µM) | 0.23 (≈ 662 µM) | 0.27 (≈ 777 µM) | 0.29 (≈ 835 µM) | 0.25 (≈ 720 µM) | 0.29 (≈ 835 µM) | 0.058 (≈ 167 µM) | 4.71 | 73 | 199 | 50–146 °C | 70 | 204 | 39–149 °C | 202 | 200 °C | NCCCCCCCCCCC(O)(P(=O)(O)O)P(=O)(O)O [Compound 8, (11-Amino-1-hydroxyundecylidene)bisphosphonic acid] | pH of solubility minimum [1]: ~2; solubility at 30 min ([1]; pH 10, aqueous buffer): 0.4 mg/mL (≈ 1150 µM); solubility at 30 min ([1]; pH 11, aqueous buffer): 0.37 mg/mL (≈ 1070 µM); Temp. range of dehydration ([3]; air): 40–148 °C; onset T of dehydration ([3]; air): 72 °C
 |  |  |  |  |  |  |  |  |  |  | 1.94 |  | 222 | 168–252 °C |  | 225 | 166–253 °C | 224 |  | NCCCC(O)(P(=O)(O)O)P(=O)(O)O [Compound 2, (4-amino-1-hydroxybutylidene)bisphosphonic acid, reference compound] | Onset of 1st cleavage (in parentheses) ([3]; TG/DTA, higher crucible): 222 °C; Onset of 1st cleavage (in parentheses) ([3]; TGA 7, shallow crucible): 225 °C; logβx ± 3σ, x = 1 (H3L−) [4]: 6.26 ± 0.01; logβx ± 3σ, x = 2 (H4L) [4]: 8.38 ± 0.02; logβx ± 3σ, x = 3 (H5L+) [4]: 8.98 ± 0.20; logβx ± 3σ, x = −1 (HL3−) [4]: −10.69 ± 0.01; logβx ± 3σ, x = −2 (L4−) [4]: −22.82 ± 0.02

The next lines start with the molecule.

SMILES | solubility at 30 min ([1]; pH 0, aqueous buffer) [mg/mL] | solubility at 30 min ([1]; pH 1, aqueous buffer) [mg/mL] | solubility at 30 min ([1]; pH 2, aqueous buffer) [mg/mL] | solubility at 30 min ([1]; pH 3, aqueous buffer) [mg/mL] | solubility at 30 min ([1]; pH 4, aqueous buffer) [mg/mL] | solubility at 30 min ([1]; pH 5, aqueous buffer) [mg/mL] | solubility at 30 min ([1]; pH 6, aqueous buffer) [mg/mL] | solubility at 30 min ([1]; pH 7, aqueous buffer) [mg/mL] | solubility at 30 min ([1]; pH 8, aqueous buffer) [mg/mL] | solubility at 30 min ([1]; pH 9, aqueous buffer) [mg/mL] | solubility at 30 min ([2]; water) [mg/mL] | pH of saturated solution [2] | Onset temperature of first cleavage ([3]; TG/DTA, higher crucible) [°C] | Td ([3]; TG/DTA, higher crucible, air) [°C] | Temp. range of 1st cleavage ([3]; TG/DTA, higher crucible) | Onset temperature of first cleavage ([3]; TGA 7, shallow crucible) [°C] | Td ([3]; TGA 7, shallow crucible, air) [°C] | Temp. range of 1st cleavage ([3]; TGA 7, shallow crucible) | Td (decomposition onset) ([3]; air) [°C] | temperature of first decomposition step (cleavage of amino group / degradation) ([3]; thermogravimetry, air) | other results
NCCCCCCCCCCCCCCCC(O)(P(=O)(O)O)P(=O)(O)O [Compound 10, (16-Amino-1-hydroxyhexadecylidene)bisphosphonic acid] |  |  |  |  |  |  |  |  |  |  | 0.039 (≈ 93.4 µM) | 7.79 | 178 | 178 | 150–248 °C | 181 | 181 | 146–245 °C | 180 | about 200 °C | 
NCCCCCCCCCC(O)(P(=O)(O)O)P(=O)(O)O [Compound 7, (10-Amino-1-hydroxydecylidene)bisphosphonic acid] |  |  |  |  |  |  |  |  |  |  | 0.217 (≈ 651 µM) | 3.28 | 185 | 185 | 175–211 °C | 189 | 189 | 161–227 °C | 187 | about 200 °C | water solubility (in words) ([2]; water): hundreds of milligrams
NCCCCCCCCCCCC(O)(P(=O)(O)O)P(=O)(O)O [Compound 9, (12-Amino-1-hydroxydodecylidene)bisphosphonic acid] | 0.13 (≈ 360 µM) | 0.08 (≈ 221 µM) | 0.07 (≈ 194 µM) | 0.08 (≈ 221 µM) | 0.14 (≈ 387 µM) | 0.2 (≈ 554 µM) | 0.21 (≈ 581 µM) | 0.2 (≈ 554 µM) | 0.24 (≈ 664 µM) | 0.25 (≈ 692 µM) | 0.03 (≈ 83 µM) | 4.05 | 185 | 185 | 163–232 °C | 191 | 191 | 155–221 °C | 188 | about 200 °C | pH of solubility minimum [1]: ~2; solubility at 30 min ([1]; pH 10, aqueous buffer): 0.4 mg/mL (≈ 1110 µM); solubility at 30 min ([1]; pH 11, aqueous buffer): 0.47 mg/mL (≈ 1300 µM)
